Legend:
[1] = Drug excretion in conventional Wistar rat feces assessed as norathyriol metabolite level at 400 mg/kg, po administered as single dose by HPLC-DAD analysis; assay type: ADME, organism-based; parameters: dose 400 mg/kg, route oral; conditions: in vivo
[2] = Drug excretion in pseudo-germ free Wistar rat feces assessed as norathyriol metabolite level at 400 mg/kg, po administered as single dose by HPLC-DAD analysis; assay type: ADME, organism-based; parameters: dose 400 mg/kg, route oral; conditions: in vivo
[3] = organism: Rattus norvegicus; experiment: Drug retention time in Wistar rat by HPLC-DAD analysis; assay type: ADME, organism-based
[4] = test system: Plasma; experiment: Stability in Wistar rat plasma measured after storage at -80 degC for 20 days by HPLC-DAD analysis; assay type: ADME, cell-free; conditions: 480 h
[5] = test system: Plasma; experiment: Drug metabolism in Wistar rat plasma assessed as retention time by HPLC-DAD analysis; assay type: ADME, cell-free
[6] = test system: Plasma; experiment: Stability in Wistar rat plasma measured within three freeze thaw cycles by HPLC-DAD analysis; assay type: ADME, cell-free
[7] = Drug excretion in streptozotocin-induced diabetic Wistar rat feces assessed as unchanged drug level at 400 mg/kg, po administered as single dose by HPLC-DAD analysis; assay type: ADME, organism-based; parameters: dose 400 mg/kg, route oral; conditions: in vivo
[8] = MRT(0 to infinity) in streptozotocin-induced diabetic Wistar rat at 400 mg/kg, po administered as single dose by HPLC-DAD analysis; assay type: ADME, organism-based; parameters: dose 400 mg/kg, route oral; conditions: in vivo
[9] = Apparent oral clearance in streptozotocin-induced diabetic Wistar rat at 400 mg/kg, po administered as single dose by HPLC-DAD analysis; assay type: ADME, organism-based; parameters: dose 400 mg/kg, route oral; conditions: in vivo
[10] = AUC(0 to t) in pseudo-germ free Wistar rat at 400 mg/kg, po administered as single dose by HPLC-DAD analysis; assay type: ADME, organism-based; parameters: dose 400 mg/kg, route oral; conditions: plasma
[11] = Drug excretion in streptozotocin-induced diabetic Wistar rat feces assessed as norathyriol metabolite level at 400 mg/kg, po administered as single dose by HPLC-DAD analysis; assay type: ADME, organism-based; parameters: dose 400 mg/kg, route oral; conditions: in vivo
[12] = Drug excretion in pseudo-germ free Wistar rat urine assessed as norathyriol metabolite level at 400 mg/kg, po administered as single dose by HPLC-DAD analysis; assay type: ADME, organism-based; parameters: dose 400 mg/kg, route oral; conditions: in vivo
[13] = Drug excretion in pseudo-germ free Wistar rat feces assessed as unchanged drug level at 400 mg/kg, po administered as single dose by HPLC-DAD analysis; assay type: ADME, organism-based; parameters: dose 400 mg/kg, route oral; conditions: in vivo
[14] = MRT(0 to t) in pseudo-germ free Wistar rat at 400 mg/kg, po administered as single dose by HPLC-DAD analysis; assay type: ADME, organism-based; parameters: dose 400 mg/kg, route oral; conditions: in vivo
[15] = Cmax in pseudo-germ free Wistar rat at 400 mg/kg, po administered as single dose by HPLC-DAD analysis; assay type: ADME, organism-based; parameters: dose 400 mg/kg, route oral; conditions: in vivo
[16] = Tmax in conventional Wistar rat at 400 mg/kg, po administered as single dose by HPLC-DAD analysis; assay type: ADME, organism-based; parameters: dose 400 mg/kg, route oral; conditions: in vivo
[17] = AUC(0 to infinity) in streptozotocin-induced diabetic Wistar rat at 400 mg/kg, po administered as single dose by HPLC-DAD analysis; assay type: ADME, organism-based; parameters: time infinity, dose 400 mg/kg, route oral; conditions: plasma
[18] = Elimination half life in pseudo-germ free Wistar rat at 400 mg/kg, po administered as single dose by HPLC-DAD analysis; assay type: ADME, organism-based; parameters: dose 400 mg/kg, route oral; conditions: in vivo, read-out: beta t1/2 (converted)
[19] = test system: Plasma; experiment: Drug recovery in Wistar rat plasma at 100 ng/ml by HPLC-DAD analysis; assay type: ADME, cell-free
[20] = AUC(0 to t) in conventional Wistar rat at 400 mg/kg, po administered as single dose by HPLC-DAD analysis; assay type: ADME, organism-based; parameters: dose 400 mg/kg, route oral; conditions: plasma
[21] = Drug excretion in streptozotocin-induced diabetic Wistar rat urine assessed as unchanged drug level at 400 mg/kg, po administered as single dose by HPLC-DAD analysis; assay type: ADME, organism-based; parameters: dose 400 mg/kg, route oral; conditions: in vivo
[22] = Tmax in streptozotocin-induced diabetic Wistar rat at 400 mg/kg, po administered as single dose by HPLC-DAD analysis; assay type: ADME, organism-based; parameters: dose 400 mg/kg, route oral; conditions: in vivo
[23] = test system: Plasma; experiment: Drug metabolism in pseudo-germ free Wistar rat plasma assessed as 1,7-dihydroxyxanthone metabolite formation at 400 mg/kg, po administered as single dose by HPLC-DAD analysis; assay type: ADME, organism-based; parameters: dose 400 mg/kg, route oral; conditions: in vivo
[24] = MRT(0 to t) in streptozotocin-induced diabetic Wistar rat at 400 mg/kg, po administered as single dose by HPLC-DAD analysis; assay type: ADME, organism-based; parameters: dose 400 mg/kg, route oral; conditions: in vivo
[25] = Drug excretion in conventional Wistar rat feces assessed as 1,7-dihydroxyxanthone metabolite level at 400 mg/kg, po administered as single dose by HPLC-DAD analysis; assay type: ADME, organism-based; parameters: dose 400 mg/kg, route oral; conditions: in vivo
[26] = test system: Plasma; experiment: Drug recovery in Wistar rat plasma at 500 ng/ml by HPLC-DAD analysis; assay type: ADME, cell-free
[27] = test system: Plasma; experiment: Drug metabolism in conventional Wistar rat plasma assessed as norathyriol metabolite formation at 400 mg/kg, po administered as single dose by HPLC-DAD analysis; assay type: ADME, organism-based; parameters: dose 400 mg/kg, route oral; conditions: in vivo
[28] = Drug excretion in conventional Wistar rat feces assessed as unchanged drug level at 400 mg/kg, po administered as single dose by HPLC-DAD analysis; assay type: ADME, organism-based; parameters: dose 400 mg/kg, route oral; conditions: in vivo
[29] = test system: Plasma; experiment: Drug metabolism in pseudo-germ free Wistar rat plasma assessed as norathyriol metabolite formation at 400 mg/kg, po administered as single dose by HPLC-DAD analysis; assay type: ADME, organism-based; parameters: dose 400 mg/kg, route oral; conditions: in vivo
[30] = test system: Plasma; experiment: Drug metabolism in streptozotocin-induced diabetic Wistar rat plasma assessed as 1,7-dihydroxyxanthone metabolite formation at 400 mg/kg, po administered as single dose by HPLC-DAD analysis; assay type: ADME, organism-based; parameters: dose 400 mg/kg, route oral; conditions: in vivo

## O=c1c2cc(O)c(O)cc2oc2cc(O)c([C@@H]3O[C@H](CO)[C@@H](O)[C@H](O)[C@H]3O)c(O)c12 [MANGIFERIN]
[1]
  Drug excretion: metabolite_detected
[2]
  Drug excretion: metabolite_not_detected
[3]
  Retention_time: 15.2 min
[4]
  Stability: Stable
[5]
  Retention_time: 5.5 min
[6]
  Stability: Stable
[7]
  Drug excretion: metabolite_detected
[8]
  MRT inf: 5.45 h
[9]
  CL/F: 772 mL/min/kg
[10]
  AUC(0-t): 4320 ng·h/mL
[11]
  Drug excretion: metabolite_detected
[12]
  Drug excretion: metabolite_not_detected
[13]
  Drug excretion: metabolite_detected
[14]
  MRT last: 7.42 h
[15]
  Cmax: 452 ng/mL
[16]
  Tmax: 0.73 h
[17]
  AUC(0-inf): 8950 ng·h/mL
[18]
  half-life: 2.59 h
[19]
  Drug recovery: 78.4%
[20]
  AUC(0-t): 3800 ng·h/mL
[21]
  Drug excretion: metabolite_detected
[22]
  Tmax: 2.25 h
[23]
  Drug metabolism: metabolite_not_detected
[24]
  MRT last: 5.4 h
[25]
  Drug excretion: metabolite_not_detected
[26]
  Drug recovery: 75.5%
[27]
  Drug metabolism: metabolite_not_detected
[28]
  Drug excretion: metabolite_detected
[29]
  Drug metabolism: metabolite_not_detected
[30]
  Drug metabolism: metabolite_not_detected
